Test results taken from paper PMC4669708 (Cell Death & Disease, 2015).

Tests used:
Assay in all cases: c-ponatinib pulldown LC-MS/MS
Format in all cases: binding
[1] = molecular target: T1, TAOK3 (Homo sapiens, UniProt Q9H2K8)
T1 sequence (Q9H2K8 1-898): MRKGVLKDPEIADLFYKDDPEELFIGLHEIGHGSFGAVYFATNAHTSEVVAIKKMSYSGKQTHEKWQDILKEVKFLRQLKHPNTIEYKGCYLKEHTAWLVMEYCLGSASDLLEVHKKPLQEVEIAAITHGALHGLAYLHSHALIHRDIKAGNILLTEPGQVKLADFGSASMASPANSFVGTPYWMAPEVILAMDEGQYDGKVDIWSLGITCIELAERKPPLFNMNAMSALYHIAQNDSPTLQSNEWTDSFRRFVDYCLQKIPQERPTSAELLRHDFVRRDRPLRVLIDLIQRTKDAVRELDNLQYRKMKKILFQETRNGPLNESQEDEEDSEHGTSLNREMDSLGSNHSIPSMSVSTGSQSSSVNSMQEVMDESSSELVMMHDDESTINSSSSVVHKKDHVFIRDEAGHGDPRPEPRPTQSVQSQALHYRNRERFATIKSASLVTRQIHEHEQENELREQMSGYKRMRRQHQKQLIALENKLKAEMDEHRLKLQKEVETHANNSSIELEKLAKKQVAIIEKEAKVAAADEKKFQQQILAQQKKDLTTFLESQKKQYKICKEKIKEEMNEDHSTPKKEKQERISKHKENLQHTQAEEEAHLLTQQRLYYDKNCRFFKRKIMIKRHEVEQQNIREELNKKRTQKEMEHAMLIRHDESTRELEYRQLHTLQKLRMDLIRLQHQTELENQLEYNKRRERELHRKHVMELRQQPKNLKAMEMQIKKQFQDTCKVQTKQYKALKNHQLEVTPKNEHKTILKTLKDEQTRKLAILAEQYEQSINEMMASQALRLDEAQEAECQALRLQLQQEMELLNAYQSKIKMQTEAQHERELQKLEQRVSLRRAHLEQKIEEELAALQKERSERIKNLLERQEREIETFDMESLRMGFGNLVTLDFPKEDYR
Method in brief: (§1)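 Spectral counts and search-engine scores from LC-MS/MS of tryptic eluates gave drug-protein specificity P-values. Eluates came from duplicate pulldowns of 10 mg lysate on 25 nmol immobilized c-ponatinib. Competition was the ratio of median counts with versus without free compound.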

[2] = molecular target: T2, CCT4 (Homo sapiens, UniProt P50991)
T2 sequence (P50991 1-539): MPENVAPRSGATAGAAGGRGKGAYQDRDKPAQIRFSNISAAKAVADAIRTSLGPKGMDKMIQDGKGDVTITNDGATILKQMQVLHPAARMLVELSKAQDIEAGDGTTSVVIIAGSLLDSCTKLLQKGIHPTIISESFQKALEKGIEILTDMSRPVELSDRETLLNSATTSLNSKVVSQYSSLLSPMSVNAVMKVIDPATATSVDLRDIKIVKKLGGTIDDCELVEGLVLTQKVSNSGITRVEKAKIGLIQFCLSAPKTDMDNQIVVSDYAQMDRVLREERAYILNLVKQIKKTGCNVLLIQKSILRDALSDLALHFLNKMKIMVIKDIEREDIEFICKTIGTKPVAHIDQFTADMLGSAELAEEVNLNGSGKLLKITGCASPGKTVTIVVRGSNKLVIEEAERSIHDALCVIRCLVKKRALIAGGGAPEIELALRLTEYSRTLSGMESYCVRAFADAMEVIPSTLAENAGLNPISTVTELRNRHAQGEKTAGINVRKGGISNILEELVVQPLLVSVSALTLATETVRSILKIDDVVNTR
Method in brief: as §1

[3] = molecular target: MAP3K1 (Homo sapiens, UniProt Q13233)
Chain of MAP3K1 (Q13233 whole entry): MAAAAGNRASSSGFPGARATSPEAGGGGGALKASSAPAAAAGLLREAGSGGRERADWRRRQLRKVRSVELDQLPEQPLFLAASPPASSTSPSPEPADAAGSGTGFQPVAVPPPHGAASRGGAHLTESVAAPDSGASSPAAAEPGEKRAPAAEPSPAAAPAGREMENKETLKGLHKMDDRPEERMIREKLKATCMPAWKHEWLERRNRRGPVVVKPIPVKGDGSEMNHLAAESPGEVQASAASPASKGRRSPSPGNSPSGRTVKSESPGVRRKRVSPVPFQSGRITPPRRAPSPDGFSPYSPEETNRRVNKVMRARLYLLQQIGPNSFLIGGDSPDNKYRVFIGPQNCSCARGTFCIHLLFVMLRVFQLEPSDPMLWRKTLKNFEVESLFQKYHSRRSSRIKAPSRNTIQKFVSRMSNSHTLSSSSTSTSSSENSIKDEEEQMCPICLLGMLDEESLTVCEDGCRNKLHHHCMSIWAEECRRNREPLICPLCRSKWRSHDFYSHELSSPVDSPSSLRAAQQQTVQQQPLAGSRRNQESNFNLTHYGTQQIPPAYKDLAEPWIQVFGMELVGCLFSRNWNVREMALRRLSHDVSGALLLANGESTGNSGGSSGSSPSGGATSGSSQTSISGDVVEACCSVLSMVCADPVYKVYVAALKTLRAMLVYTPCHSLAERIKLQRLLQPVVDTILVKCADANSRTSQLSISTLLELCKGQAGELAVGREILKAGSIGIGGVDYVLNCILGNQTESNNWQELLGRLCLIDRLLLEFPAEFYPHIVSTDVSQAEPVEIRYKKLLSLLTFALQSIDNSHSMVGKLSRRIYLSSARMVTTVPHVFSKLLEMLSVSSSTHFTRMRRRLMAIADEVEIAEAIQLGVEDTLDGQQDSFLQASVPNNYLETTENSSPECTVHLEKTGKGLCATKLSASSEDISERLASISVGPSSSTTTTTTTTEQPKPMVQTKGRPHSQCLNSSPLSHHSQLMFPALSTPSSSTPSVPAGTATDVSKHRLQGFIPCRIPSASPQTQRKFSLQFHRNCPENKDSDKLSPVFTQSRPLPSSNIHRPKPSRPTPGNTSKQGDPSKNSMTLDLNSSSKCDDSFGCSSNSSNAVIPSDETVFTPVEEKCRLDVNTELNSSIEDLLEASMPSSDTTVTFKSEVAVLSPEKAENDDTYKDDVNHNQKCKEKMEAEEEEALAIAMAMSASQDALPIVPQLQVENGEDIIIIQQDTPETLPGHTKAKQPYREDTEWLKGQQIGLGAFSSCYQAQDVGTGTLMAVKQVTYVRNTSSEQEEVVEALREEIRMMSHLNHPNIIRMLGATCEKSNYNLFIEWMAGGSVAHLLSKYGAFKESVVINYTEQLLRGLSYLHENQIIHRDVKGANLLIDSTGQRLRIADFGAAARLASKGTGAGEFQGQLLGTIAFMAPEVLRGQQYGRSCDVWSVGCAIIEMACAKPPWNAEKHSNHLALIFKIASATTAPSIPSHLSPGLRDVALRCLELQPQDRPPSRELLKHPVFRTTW
Method in brief: as §1

[4] = molecular target: MAPK14 (Homo sapiens, UniProt Q16539)
Chain of MAPK14 (Q16539 whole entry): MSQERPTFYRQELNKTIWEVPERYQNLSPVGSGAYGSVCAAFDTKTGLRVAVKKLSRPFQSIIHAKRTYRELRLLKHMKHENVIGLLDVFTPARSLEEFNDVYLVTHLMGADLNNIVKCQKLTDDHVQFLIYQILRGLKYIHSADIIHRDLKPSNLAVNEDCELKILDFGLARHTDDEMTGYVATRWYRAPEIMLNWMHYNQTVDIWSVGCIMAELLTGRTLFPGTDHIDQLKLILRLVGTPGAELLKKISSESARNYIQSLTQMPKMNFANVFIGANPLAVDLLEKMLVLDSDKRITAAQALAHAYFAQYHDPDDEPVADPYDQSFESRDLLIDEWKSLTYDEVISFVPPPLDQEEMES
Method in brief: as §1

## Cc1ccc(C(=O)Nc2ccc(CN3CCN(CCCN)CC3)c(C(F)(F)F)c2)cc1C#Cc1cnc2cccnn12 [c-ponatinib]
[1]; + free ponatinib
  Av. SC comp.: 2
  Total SC comp.: 8
[1]; no competitor
  Av. SC: 13
  Total SC: 52
[2]; + free ponatinib
  Av. SC comp.: 0
  Total SC comp.: 0
[2]; no competitor
  Av. SC: 3.5
  Total SC: 14
[3]; + free ponatinib
  Av. SC comp.: 0
  Total SC comp.: 0
[3]; no competitor
  Av. SC: 9
  Total SC: 36
[4]; + free ponatinib
  Av. SC comp.: 7.25
  Total SC comp.: 29
[4]; no competitor
  Av. SC: 79.25
  Total SC: 317
